Results reported in US20080031982A1 (Metaproteomics, LLC, priority 2006, published 2008).
Marks after values point to notes of the source that are not given here.

Tests used:
[1] = tested on: LPS-treated 3T3-L1 adipocytes; test: Adiponectin secretion in LPS/3T3-L1 adipocytes; type: cell-based, murine; conditions: for Maximum adiponectin stimulation / concentration of maximum adiponectin stimulation: 100 ng/ml LPS
3T3-L1 adipocytes = test: Lipogenesis in 3T3-L1 adipocytes (Oil Red O / BODIPY); type: cell-based, murine; conditions: for adipogenic / lipogenic response: relative to solvent and positive controls
Description: Prior to experiments, cells were cultured in DMEM containing 10% FBS-HI added 50 units penicillin/ml and 50 μg streptomycin/ml, and maintained in log phase prior to experimental setup. Cells were grown in a 5% CO2 humidified incubator at 37° C. Components of the pre-confluent medium included (1) 10% FBS/DMEM containing 4.5 g glucose/L; (2) 50 U/ml penicillin; and (3) 50 μg/ml streptomycin. Growth medium was made by adding 50 ml of heat inactivated FBS and 5 ml of penicillin/streptomycin to 500 ml DMEM. This medium was stored at 4° C. Before use, the medium was warmed to 37° C. in a water bath.
3T3-T1 cells were seeded at an initial density of 6×10^4 cells/cm^2 in 24-well plates. For two days, the cells were allowed grow to reach confluence. Following confluence, the cells were forced to differentiate into adipocytes by the addition of differentiation medium; this medium consisted of (1) 10% FBS/DMEM (high glucose); (2) 0.5 mM methylisobutylxanthine; (3) 0.5 μM dexamethasone and (4) 10 μg/ml insulin (MDI medium). After three days, the medium was changed to post-differentiation medium consisting of 10 μg/ml insulin in 10% FBS/DMEM.
Whenever fresh media were added, fresh test material was also added.
Oil Red 0 Staining—Triglyceride content of D6/D7-differentiated 3T3-L1 cells was estimated with Oil Red 0 according to the method of Kasturi and Joshi [Kasturi, R. and Joshi, V. C. […] Monolayer cells were washed with PBS (phosphate buffered saline, Mediatech) and fixed with 10% formaldehyde for ten minutes. Fixed cells were stained with an Oil Red 0 working solution of three parts 0.6% Oil Red O/isopropanol stock solution and two parts water for one hour and the excess stain was washed once with water. The resulting stained oil droplets were extracted from the cells with isopropanol and quantified by spectrophotometric analysis at 540 nm (MEL312e BIO-KINETICS READER, Bio-Tek Instruments, Winooski, Vt.).
Briefly, media were removed and cells were washed once with non-sterile PBS. A stock 1000× BODIPY/DMSO solution was made by dissolving 1 mg BODIPY in 1 ml DMSO (1,000 μg BODIPY/ml). […] One-hundred μl of this working solution (1 μg BODIPY) was added to each well of a 96-well microtiter plate. After 15 min on an orbital shaker (DS-500, VWR Scientific Products, South Plainfield, N.J.) at ambient temperature, the cells were washed with 100 μl PBS followed by the addition of 100 μl PBS for reading for spectrofluorometric determination of BODIPY incorporation into the cells.
Nonpolar lipid incorporation was represented relative to the nonpolar lipid accumulation of fully differentiated cells in the solvent controls.

[2] = tested on: insulin-resistant 3T3-L1 adipocytes; test: Adiponectin secretion from insulin-resistant 3T3-L1 adipocytes; type: cell-based, murine; conditions: 50.0 μg/ml, ratio of the indices (Table 21)
Description: 3T3-L1 cells were seeded at an initial density of 1×10^4 cells/cm^2 in 96-well plates. For two days, the cells were allowed grow to reach confluence. Following confluence, the cells were forced to differentiate into adipocytes by the addition of differentiation medium; this medium consisted of (1) 10% FBS/DMEM (high glucose); (2) 0.5 mM methylisobutylxanthine; (3) 0.5 μM dexamethasone and (4) 10 μg/ml insulin (MDI medium). From Day 3 through Day 5, the medium was changed to post-differentiation medium consisting of 10 μg/ml insulin in 10% FBS/DMEM.
Briefly, on Day 6, cells were maintained in serum-free media containing 0.5% bovine serum albumin (BSA) for three hours and then treated with 1 μg insulin/ml plus solvent or insulin plus test material. […] Twenty-four hours later, the supernatant medium was sampled for adiponectin determination.
Adiponectin Assay—The adiponectin secreted into the medium was quantified using the Mouse Adiponectin Quantikine® Immunoassay kit with no modifications (R&D Systems, Minneapolis, Minn.).
Substituting {relative adiponectin secretion/[concentration]} for the independent variable v/[S] and {relative adiponectin secretion} for the dependant variable {v}, produced a relationship of the form y=mx+b. […]

[3] = tested on: LPS-stimulated 3T3-L1 adipocytes; test: IL-6 secretion in LPS/3T3-L1 adipocytes; type: cell-based, murine; conditions: at the concentration of maximum inhibition, 100 ng LPS/ml; for IL-6 Index: indexed to LPS control
[4] = tested on: TNFα-treated 3T3-L1 adipocytes; test: Adiponectin secretion from TNFα-treated 3T3-L1 adipocytes; type: cell-based, murine; conditions: for maximum increase of adiponectin secretion from TNFα control: 10 ng/ml TNFα
Description: For two days, the cells were allowed grow to reach confluence. […] (3) 0.5 μM dexamethasone and (4) 10 μg/ml insulin (MDI medium). […] Adiponectin Assay—The adiponectin secreted into the medium was quantified using the Mouse Adiponectin Quantikine® Immunoassay kit with no modifications (R&D Systems, Minneapolis, Minn.). […] Statistical Calculations and Interpretation—All assays were preformed in duplicate. […] Differences among the doses and test agents were determined using the Student's t-test without correction for multiple comparisons; the nominal five percent probability of a type I error was selected.

[5] = Non-fasting serum glucose in db/db diabetic mice; type: in vivo
Description: The Model—Male, C57BLKS/J m^+/m^+ Lepr^db (db/db) mice were used to assess the potential of the test materials to reduce fasting serum glucose or insulin concentrations. This strain of mice is resistant to leptin by virtue of the absence of a functioning leptin receptor.
Testing Procedure—Test substances were administered daily by gavage in 0.2% Tween-80. Serum was collected from the retroorbital sinus before the initial dose and ninety minutes after the third and final dose. Non-fasting serum glucose was determined enzymatically by the mutarotase/glucose oxidase method and serum insulin was determined by a mouse specific ELISA.
Testing Procedure—Test substances were administered daily by gavage in 0.2% Tween-80. Serum was collected from the retroorbital sinus before the initial dose and ninety minutes after the fifth and final dose. Non-fasting serum glucose was determined enzymatically by the mutarotase/glucose oxidase method and serum insulin was determined by a mouse specific ELISA.

[6] = Serum cytokine (IL-6, TNF-α) analysis, collagen induced arthritis; type: in vivo, DBA/J mice; conditions: 10 mg/kg
Description: Cytokine analysis—Serum was collected from the mice at the termination of the experiment for cytokine analysis. The volume of sample being low (˜0.2-0.3 ml/mouse), samples from the ten mice were randomly allocated into two pools of five animals each. This was done so to permit repeat analyses; each analysis was performed a minimum of two times. TNF-α and IL-6 were analyzed using mouse specific reagents (R&D Systems, Minneapolis, Minn.) according to the manufacturer's instructions.

PGE2 biosynthesis = PGE2 biosynthesis in A549 cells stimulated by mite dust allergen; type: cell-based, human; conditions: 10 μg/ml
From the text: Mite dust allergen isolation—Dermatophagoides farinae is the American house dust mite. D. farinae were raised on a 1:1 ratio of Purina Laboratory Chow (Ralston Purina, Co, St. Louis, Mo.) and Fleischmann's granulated dry yeast (Standard Brands, Inc. New York, N.Y.) at room temperature and 75% humidity. Live mites were aspirated from the culture container as they migrated from the medium, killed by freezing, desiccated and stored at 0% humidity. The allergenic component of the mite dust was extracted with water at ambient temperature. Five-hundred mg of mite powder were added to 5 ml of water (1:10 w/v) in a 15 ml conical centrifuge tube (VWR, Rochester, N.Y.), shaken for one minute and allowed to stand overnight at ambient temperature. The next day, the aqueous phase was filtered using a 0.2 μm disposable syringe filter (Nalgene, Rochester, N.Y.). The filtrate was termed mite dust allergen and used to test for induction of PGE2 biosynthesis in A549 pulmonary epithelial cells.
Cell culture and treatment—The human airway epithelial cell line, A549 (American Type Culture Collection, Bethesda, Md.) was cultured and treated as previously described in Example 6. Mite allergen was added to the culture medium to achieve a final concentration of 1000 ng/ml. Eighteen hours later, the media were sampled for PGE2 determination.

[7] = at the concentration of maximum stimulation

## CC(=O)Oc1ccccc1C(=O)O [Aspirin, aspirin]
[1]
  Maximum adiponectin stimulation: failed to induce adiponectin secretion

## CC(C)CCC1=C(O)C(C(=O)C(C)C)=C(O)C(CCC(C)C)(CCC(C)C)C1=O [Hexahydro colupulone, hexahydrocolupulone]
3T3-L1 adipocytes
  adipogenic / lipogenic response: failed to elicit a lipogenic response greater than the solvent controls

## CC(C)CCC1=C(O)C(C(=O)C(C)C)=C(O)C(CCC(C)C)(CCC(C)C)C1=O [Hexahydrocolupulone (HHCL)]
[2]
  Adiponectin/IL-6: 0.60#

## COc1ccc2c(c1)c(CC(=O)O)c(C)n2C(=O)c1ccc(Cl)cc1 [Indomethacin, indomethacin]
[3]
  % Inhibition of IL-6 secretion (maximum): 53* %
3T3-L1 adipocytes
  adipogenic / lipogenic response: induced lipogenesis
[1]
  Maximum adiponectin stimulation: 9%
[1]; [7]
  % Stimulation of adiponectin secretion (maximum): 9%

## CCc1ccc(CCOc2ccc(CC3SC(=O)NC3=O)cc2)nc1 (centres unmarked) [Pioglitazone, pioglitazone]
[3]
  IL-6 Index: 0.37*
[4]
  maximum increase of adiponectin secretion from TNFα control: 80%
[4]; 1.0 μg/ml (Table 26)
  Adiponectin Index Observed: 1.80
[1]
  concentration of maximum adiponectin stimulation: 1.25 µg/mL
[1]; [7]
  % Stimulation of adiponectin secretion (maximum): 12%

## Cc1c(C)c2c(c(C)c1O)CCC(C)(COc1ccc(CC3SC(=O)NC3=O)cc1)O2 (centres unmarked) [Troglitazone, troglitazone]
[4]
  maximum increase of adiponectin secretion from TNFα control: 51%
[1]
  concentration of maximum adiponectin stimulation: 0.625 µg/mL
[1]; [7]
  % Stimulation of adiponectin secretion (maximum): 15%

## CC(C)Cc1ccc(C(C)C(=O)O)cc1 (centres unmarked) [ibuprofen]
[1]
  concentration of maximum adiponectin stimulation: 0.625 µg/mL
[1]; [7]
  % Stimulation of adiponectin secretion (maximum): 22%

## CN(C)C(=N)N=C(N)N [metformin, reference compound]
3T3-L1 adipocytes; Oil Red O, 50 μg/ml
  lipogenic index (triglyceride content relative to solvent control): 0.79
[5]; three consecutive days
  serum glucose relative to controls: decreased

## C[C@]12C=CC(=O)C=C1CC[C@@H]1[C@@H]2[C@@H](O)C[C@@]2(C)[C@H]1CC[C@]2(O)C(=O)CO [prednisolone]
[6]
  reduction of serum IL-6 levels: reached a statistical significance

## CN(CCOc1ccc(CC2SC(=O)NC2=O)cc1)c1ccccn1 (centres unmarked) [rosiglitazone]
[5]; 1.0 mg/kg-day by gavage, three days, db/db mice, non-fasting serum
  Glucose [% Pretreatment]: 83.0# % Pretreatment

## O=C(O)c1ccccc1O [salicylic acid]
[3]
  IL-6 Index: 0.52*
[1]
  Maximum adiponectin stimulation: failed to induce adiponectin secretion
[1]; at the concentration of maximum stimulation, indexed to LPS control
  Adiponectin Index: 0.96

## Beta acids
3T3-L1 adipocytes
  adipogenic / lipogenic response: comparable to indomethacin and troglitazone
PGE2 biosynthesis
  Percent PGE2 Inhibition: 83%
